From US4940702A, “Cephem compounds” (Beecham Group p.l.c., priority 1985, dated 1990)
Converted amounts (≈) assume the structure as drawn.

Tests used:
Assay in all cases: Minimum Inhibitory Concentration (MIC) by serial dilution in nutrient agar
Type in all cases: cell-based
E. coli DC 0 = details: Escherichia coli, DC0, 10^4 colony forming units, overnight at 37° C.
Experimental: (§1) Minimum Inhibitory Concentration (MIC) values of compounds of the invention against E coli DC 0, K pneumoniae T767, and P aeruginosa NCTC 10662 were determined by serial dilution in a nutrient agar (from Oxoid Ltd., Basingstoke, England). The plates were inoculated with 10^4 colony forming units and incubated overnight at 37° C. The MIC values recorded in Table 1 were the lowest concentration of antibiotic to inhibit growth. Comparative data for 7α-formamido-3-(pyridiniummethyl)-7β-(thien-2-yl-acetamido)-ceph-3-em-4-carboxylate (Compound A), disclosed in European Patent Application No. 82303821.1 (Publication Number 0 071 395), are also given.

K. pneumoniae T767 = details: Klebsiella pneumoniae, 10^4 colony forming units, overnight at 37° C.
Experimental: as §1

P. aeruginosa NCTC 10662 = details: Pseudomonas aeruginosa, NCTC10662, 10^4 colony forming units, overnight at 37° C.
Experimental: as §1

Compound	MIC (E. coli DC 0)	MIC (K. pneumoniae T767)	MIC (P. aeruginosa NCTC 10662)
CCN1CCN(C(=O)N[C@@H](C(=O)N[C@]2(NC=O)C(=O)N3C(C(=O)[O-])=C(C[n+]4ccc(C5CC5)cc4)CS[C@@H]32)c2ccccc2)C(=O)C1=O [Example 29, 3-(4-Cyclopropylpyridinium)methyl-7β-[D-2-[(4-ethyl-2,3-dioxopiperazin-1-yl)carbonylamino]-2-phenylacetamido]-7α-formamido-ceph-3-em-4-carboxylate]	0.5 µg/mL (≈ 0.74 µM)	1 µg/mL (≈ 1.48 µM)	8 µg/mL (≈ 11.8 µM)
O=CN[C@@]1(NC(=O)Cc2cccs2)C(=O)N2C(C(=O)[O-])=C(C[n+]3ccccc3)CS[C@@H]21 [Compound A, 7α-formamido-3-(pyridiniummethyl)-7β-(thien-2-yl-acetamido)-ceph-3-em-4-carboxylate, reference compound]	25 µg/mL (≈ 54.5 µM)	25 µg/mL (≈ 54.5 µM)	50 µg/mL (≈ 109 µM)
CCN1CCN(C(=O)NC(C(=O)NC2(NC=O)C(=O)N3C(C(=O)[O-])=C(C[n+]4cccc5c4CCC5)CSC32)c2ccc(O)c(O)c2)C(=O)C1=O [Example 3, 3-(2,3-Cyclopentenopyridinium)methyl-7β-[D-2-(3,4-dihydroxyphenyl)-2-[(4-ethyl-2,3-dioxopiperazin-1-yl)carbonylamino]acetamido]-7α-formamido-ceph-3-em-4-carboxylate]	0.12 µg/mL (≈ 0.17 µM)	0.12 µg/mL (≈ 0.17 µM)	1 µg/mL (≈ 1.41 µM)
